For 64 molecules, melting point results are on record in a melting point compilation (Tetko et al.; mined from patent text by program, amines drawn as free bases though some values may be those of a salt).

What is called melting point is the temperature of the solid-liquid transition. Take `COC(=O)C1(CCCN2CCN(c3ccccc3)CC2)Sc2cc(OC)ccc2OCC1=O` (centres undefined): the melting point was 110 to 112 °C.
Under `CSc1ccc(-c2cncn2-c2ccc(S(C)(=O)=O)cc2)cc1` stands 153 to 155 °C; under `O=C1Cc2cc(F)ccc2Sc2ccccc21`, 98 to 100 °C; under `CN1Cc2c(C(=O)NN)ncn2-c2ccsc2C1=O`, greater than 260 °C.
`CN(C)C(=O)c1ccccc1CC(=O)Nc1cccc(/C=C/c2nc(C3CCC3)cs2)c1` displayed a melting point of 125 to 127 °C.
`Nc1cc(OCc2ccccc2)cc(OCc2ccccc2)c1`: the melting point lay in the range of 77 to 80 °C.
In the case of `CC1=CC(C)=Nc2c(ccc3nc(O)c(O)nc23)N1`, the melting point was greater than 300 °C.
With `COc1ccc(C(=O)c2cccc(C(F)(F)F)c2F)c(OC)c1` the figure was 79 to 82 °C; with `CCOC(=O)c1ncc2[nH]c3ccc(Oc4ccc(OC)cc4)cc3c2c1COC`, 154 °C.
As for `Cc1n[nH]c2cc(F)ccc12`, the melting point lay in the range of 116 to 117 °C.
Under `Clc1ccc2c(c1)Oc1ccccc1C=C2CBr` stands 117 to 119 °C; under `C[C@H]1Oc2ccc(F)cc2NC(=O)[C@H]1N`, 173 to 177 °C.
For the molecule `COc1cc(C)c(NS(C)(=O)=O)cc1C(=O)NCC1CCCO1` (centres undefined), the melting point is 207 to 208 °C.
With `Nc1nc(=O)n(COCc2ccccc2)cc1F` the figure was 213 to 217 °C.
With `CC[C@H](COC)n1cc(Cl)nc(N2CCc3cc(OC)cc(C#N)c32)c1=O` the figure was 141 to 142 °C; with `C[C@H](NC(=O)OCc1ccccc1)C(=O)Nc1ccc(S(N)(=O)=O)cc1`, 245 to 246 °C; with `COC(=O)c1ccc(OCCCOc2c(C)c(C)c(C(=O)Oc3c(C)c(C)c(C(N)=O)c(OC)c3C)c(OC)c2C)cc1`, 202 to 204 °C.
Turning to `O=C(O)c1nn(CCCCCCl)c2c1CCc1cc(Cl)sc1-2`, the melting point fell in the range of 205 to 208 °C.
With `CS(=O)(=O)Nc1ccc(-c2nc(C(F)(F)F)c[nH]2)cc1` the figure was 253 to 255 °C; with `O=S(=O)(Cl)c1cc2c(Br)cccc2o1`, 87.2 °C; with `CC(C)c1ccc(-c2nsc(-c3cccc(C(=O)O)c3)n2)cc1`, 166 to 168 °C.
`CN(C)c1cccc(Cc2cc3cccc(-c4cccc(C(=O)NCC(N)=O)c4)c3s2)c1` returned a melting point of 149 to 151 °C.
With `O=C(COc1ccccc1)N[C@H]1C(=O)N[C@H]1C(=O)O` (relative stereo) the figure was 150 to 151 °C; with `CN(C)C1CCN(CCc2ccc(-c3cccc(N)n3)cc2)CC1`, 174 to 176 °C.
In the case of `CC(=O)N1CCN(NC(=O)c2cccs2)CC1`, the melting point lay within 212 to 213 °C.
With `COC(=O)N=P(c1ccccc1)(c1ccccc1)c1ccccc1` the figure was 138 to 139 °C.
Molecule `Cc1c(NC(=O)c2ccc(OCc3ccccc3)cc2F)ccc2cc(CN3CCCCC3)cnc12` yielded a melting point of 180 to 181 °C.
Under `COc1cc(CC(=O)N2CCN(c3nsc4ccccc34)CC2)c([N+](=O)[O-])cc1OC` stands 170 °C; under `CCCCCCCCCCCCCCCCCCCCC(NC(C)=O)(C(=O)OCC)C(=O)OCC`, 76.5 to 77.5 °C; under `CCn1c(=O)n(OCc2ccccc2)c(=O)c2cc(F)c(F)cc21`, 133 to 135 °C.
In turn, `Cc1ccc(O)c2c1C(C(=O)N(Cc1ccc(N(C)C)cc1)c1ccc(C(C)C)cc1)CCC2` (centres undefined) had a melting point of 190 °C.
Take `CN(c1ccc(F)c(C(F)(F)F)c1)c1nccc(-c2ccc(F)c(C(F)(F)F)c2)n1`: the melting point lay within 83 to 84 °C.
With `Cc1ccc(Cl)cc1N1CCCN(CC(C)C)C1=S` the figure was 96 to 98 °C; with `CC(C)NC(=O)N1CC(Oc2cccc(C(F)(F)F)c2)C1`, 150 to 152 °C.
Take `CCc1nc(=O)c2ccccc2n1Cc1ccc(-c2ccccc2C#N)cc1`: the melting point lay in the range of 207 to 208 °C.
`CCc1ccc2oc(C(=O)Nc3ccc(-c4ccc(S(=O)(=O)NC(C(=O)O)C(C)C)cc4)cc3)c(C)c2c1OC(C)C` (centres undefined) had a melting point of 159 to 162 °C.
As for `CC(C)(C)c1cc(-c2nnc(C(N)=S)s2)cc(C(C)(C)C)c1O`, the melting point lay in the range of 215 to 216 °C.
The molecule `NC(=O)CCC1OC(=O)NC1c1cc(F)c(-n2nnc(Cc3cccs3)n2)c(F)c1` (centres undefined) had a melting point of 142 to 144 °C.
With `COc1ccc(C2=NN(c3ccccc3)C(c3ccc(NC(=S)Nc4ccccc4)cc3)C2)cc1` (centres undefined) the figure was 153 to 156 °C.
For the molecule `COc1ccc2cc(CCc3ccc(OCC(O)CNC(C)C)cc3)n(C)c(=O)c2c1` (centres undefined), the melting point lay within 137 to 139 °C.
Under `C[C@@H]1C(=O)C[C@H]2C[C@@H]1OO[C@@]2(C)/C=C\c1ccc(C#N)cc1` stands 125 °C.
In the case of `CN1CCN(c2nn(CC3CC3)c3ccccc23)CC1`, the melting point was 68 to 70 °C.
Turning to `Cc1c(CCC(=O)O)ccc2c3ccccc3n(Cc3ccccc3)c12`, the melting point lay in the range of 160 to 162 °C.
As for `CC(C)(C)OC(=O)NCCCn1nnnc1S`, the melting point was in the range of 75 to 77 °C.
With `Cc1nnc(-c2ccc3occ(-c4cc(F)ccc4Cl)c3c2)o1` the figure was 130 to 131 °C.
With `O=C(CCc1ccccc1)N[C@H](Cc1ccc(C(F)(F)F)c(F)c1)[C@@H](O)c1ccc(F)cc1` (racemic) the figure was 126 to 127 °C; with `COC(=O)C(=CNc1sccc1C(=O)O)SC`, 192 to 194 °C; with `CCOC(=O)c1ccc(-c2nc3ccc(C)cn3c2CO)cc1`, 157 to 159 °C.
For `O=C(O)c1cc(F)ccc1Nc1ccnc2c(C(F)(F)F)cccc12`, the melting point lay in the range of 262 to 268 °C.
With `CCOC(=O)C(c1ccccc1)n1cccc1` (centres undefined) the figure was 51 to 53 °C.
For `CCOc1ccc2[nH]ccc2c1OCc1ccccc1`, the melting point was in the range of 122 to 123 °C.
Under `COc1cc2ncc(C#N)c(Nc3ccccc3SC)c2cc1OC` stands 245 to 247 °C; under `COc1ccc(C2CC(=O)N(C(=S)NCc3ccc(F)cc3)N2C)cc1OC1CCCC1` (centres undefined), 48 to 51 °C.
With `CN1C(=O)Cn2c(CCl)nnc2-c2cc(Cl)ccc21` the figure was 193 to 194 °C; with `CC(=O)c1ccc(OC(C)CCCCC(=O)O)cc1O` (centres undefined), 116 to 118 °C.
Under `CCOC(=O)c1cn(-c2nnc(C)s2)c2cc(F)c(F)cc2c1=O` stands 170 to 173 °C; under `O=C(CCC[C@H](O)c1ccc(F)cc1)N1C(=O)OC[C@@H]1c1ccccc1`, 39.7 °C; under `Cn1ccc(CON2C(=O)c3ccccc3C2=O)n1`, 122 to 124 °C.
In turn, `ClCc1ccc(OCc2cn3c(Cl)cccc3n2)cc1` had a melting point of 114 to 115 °C.
`CC1=NN=C(C=Cc2ccc(C#N)cc2)c2cc3c(cc2C1)OCO3` came in with a melting point of 198 to 202 °C.
In turn, `CS(=O)(=O)N1CCC(NC(=O)NC23CC4CC(CC(C4)C2)C3)CC1` came in with a melting point of 228 to 229 °C.
Consider `CCCCNc1c(CO)cnc2c1cnn2CC`, for which the melting point lay in the range of 60 to 72 °C.
As to `O=Cc1cc(O)c(OCc2ccccc2)cc1O`, the melting point lay within 147 to 148 °C.
With `CCCCC(CC)COC(=O)CSc1cc2c(cc1SCC(=O)OCC(CC)CCCC)C(=O)c1cc3ccccc3cc1C2=O` (centres undefined) the figure was 75 to 80 °C.
